Reference: patent publication US4167405A, “Fertilizers for supplying plants with iron” (Bayer Aktiengesellschaft, priority 1977, dated 1979)

Tests used:
[1] = test system: Chrysanthemum indicum (Variety: Yellow Delaware); assay: Combating iron deficiency/leaf uptake test; format: in vivo
Protocol: Test plant: Chrysanthemum indicum (Variety: Yellow Delaware)
Culture substrate: Mixture of polystyrene foam flock (Styromull) and potassium alginate in the volume ratio of 10:1
To prepare a suitable formulation of the active compound, the particular amount of active compound desired was dissolved in water.
Test plants were grown in a culture substrate of the composition indicated above, fertilization and watering being effected by adding, twice weekly, a mineral-iron-deficient nutrient solution according to Hoagland and Arnon (Circular 347, College of Agriculture, University of California, Berkeley 1950). […] After 2 days the plants were again sprayed with the active compound formulation in the same manner.
The evaluation took place when an average of 2 leaves had newly formed on the plants treated with an optimum amount of a water-soluble, commercially available iron fertilizer, in each case, the average number of newly formed leaves was determined on all test plants. Furthermore, the intensity of the green colour of newly formed leaves was rated and expressed as a numerical code.
In this, the figures denoted:
1=0% chlorotic (dark green)
9=100% chlorotic (corresponding to the untreated control plants)

[2] = Water solubility of the preparation; format: physicochemical
[3] = nutrient preparation in the spray liquor 0.03 %
[4] = nutrient preparation in the spray liquor 0.16 %
[5] = nutrient preparation in the spray liquor 0.78 %
[6] = nutrient preparation in the spray liquor 0.12 %
[7] = nutrient preparation in the spray liquor 0.59 %
[8] = nutrient preparation in the spray liquor 0.13 %
[9] = nutrient preparation in the spray liquor 0.62 %
[10] = nutrient preparation in the spray liquor 0.66 %
[11] = nutrient preparation in the spray liquor 0.14 %
[12] = nutrient preparation in the spray liquor 0.15 %
[13] = nutrient preparation in the spray liquor 0.74 %

Q: For `CCCCCCCCCC(=O)[c-]1cccc1.[Fe+2].c1cc[cH-]c1` [Example 2, n-decanoyl-ferrocene], which “Average number of newly formed leaves” value [1, 3] is on record?
A: 4

Q: And the “Intensity of the green colour of young leaves” value (“Intensity” below) [1, 3]?
A: 3 (25% chlorotic)

Q: What about the “Average number of newly formed leaves” value [1, 4] of the same compound?
A: 5

Q: And the “Intensity” value [1, 4]?
A: 2-3

Q: And the “Average number of newly formed leaves” value [1, 5]?
A: 5

Q: What about the “Intensity” value [1, 5] of the same compound?
A: 2

Q: And the “Water solubility of the preparation” value [2]?
A: slight

Q: For `CCCCC(=O)[c-]1cccc1.[Fe+2].c1cc[cH-]c1` [Example 3, n-pentanoylferrocene], which “Average number of newly formed leaves” value [1, 6] is on record?
A: 4

Q: And the “Intensity” value [1, 6]?
A: 2-3

Q: And the “Average number of newly formed leaves” value [1, 7]?
A: 4

Q: What about the “Intensity” value [1, 7] of the same compound?
A: 2

Q: And the “Water solubility of the preparation” value [2]?
A: slight

Q: Which results are given for `CCCCCC(=O)[c-]1cccc1.[Fe+2].c1cc[cH-]c1` [Example 4, n-hexanoylferrocene]?
A: Average number of newly formed leaves [1, 8]: 3; Intensity of the green colour of young leaves [1, 8]: 3 (25% chlorotic); Average number of newly formed leaves [1, 9]: 3; Intensity of the green colour of young leaves [1, 9]: 2-3; Water solubility of the preparation [2]: slight

Q: With `CCCCCCC(=O)[c-]1cccc1.[Fe+2].c1cc[cH-]c1` [Example 5, n-heptanoylferrocene] as the compound, how does the “Average number of newly formed leaves” value [1, 8] read?
A: 4

Q: What about the “Intensity” value [1, 8] of the same compound?
A: 3 (25% chlorotic)

Q: What about the “Average number of newly formed leaves” value [1, 10] of the same compound?
A: 4

Q: What about the “Intensity” value [1, 10] of the same compound?
A: 2-3

Q: And the “Water solubility of the preparation” value [2]?
A: slight

Q: For `CCCCCCCC(=O)[c-]1cccc1.[Fe+2].c1cc[cH-]c1` [Example 6, n-octanoylferrocene], which “Average number of newly formed leaves” value [1, 3] is on record?
A: 4

Q: And the “Intensity” value [1, 3]?
A: 3 (25% chlorotic)

Q: And the “Average number of newly formed leaves” value [1, 11]?
A: 5

Q: What about the “Intensity” value [1, 11] of the same compound?
A: 2-3

Q: What about the “Water solubility of the preparation” value [2] of the same compound?
A: slight

Q: With `CCCCCCCCC(=O)[c-]1cccc1.[Fe+2].c1cc[cH-]c1` [Example 7, n-nonaoylferrocene] as the compound, how does the “Average number of newly formed leaves” value [1, 3] read?
A: 4

Q: What about the “Intensity” value [1, 3] of the same compound?
A: 3 (25% chlorotic)

Q: What about the “Average number of newly formed leaves” value [1, 12] of the same compound?
A: 5

Q: And the “Intensity” value [1, 12]?
A: 2-3

Q: What about the “Average number of newly formed leaves” value [1, 13] of the same compound?
A: 5

Q: What about the “Intensity” value [1, 13] of the same compound?
A: 2

Q: What about the “Water solubility of the preparation” value [2] of the same compound?
A: slight
